Measurements from PMC6394493 (Cancer Chemotherapy and Pharmacology, 2018).

How the values were obtained:
[1] = bid; Western oncology patients; cited from earlier work
advanced solid tumors = test: Tumor response per RECIST v1.0; assay type: in vivo, Japanese patients
Description: Tumor lesions were assessed by the investigators according to the RECIST guidelines, v1.0. Patients underwent screening using computed tomography (CT) or magnetic resonance imaging (MRI) scans. Screening was performed within 28 days of the first dose. The post-baseline RECIST assessments were performed every two cycles and then at the end of treatment.

## Cn1c(=O)n(-c2ccc(C(C)(C)C#N)cc2)c2c3cc(-c4cnc5ccccc5c4)ccc3ncc21 [BEZ235]
[1]
  MTD: 300 mg
Advanced solid tumors; all dose levels, qd and bid, 35 patients, RECIST v1.0
  complete or partial responses (CR or PR): No complete or partial responses
Advanced solid tumors; bid, 2 of 8 evaluable patients
  Stable disease (SD) as the best response: 25.0%
Advanced solid tumors; one patient with carcinoma of unknown primary, qd
  duration of continued treatment with SD: 10 months
Advanced solid tumors; qd, 14 of 27 evaluable patients
  Stable disease (SD) as the best response: 51.9%
